Values quoted from earlier work in US7378109B2, “Pharmaceutical composition for improving palatability of drugs and process for preparation thereof” (Council of Scientific and Industrial Research, priority 2004, dated 2008).

Conditions: humans, oral

bioavailability: 32-50%
SMILES: CO/N=C(\C(=O)N[C@@H]1C(=O)N2C(C(=O)OC(C)OC(C)=O)=C(COC(N)=O)CS[C@H]12)c1ccco1 (stereo partly shown) [Cefuroxime axetil]
